Tests used:
[1] = test system: S.mutans biofilms; assay: Follow-up observation of pH of washes of a laboratory model of S. mutans biofilms in 10% sucrose; format: cell-based, Streptococcus mutans; details: for Value of pH decrease within 30 min. of measurement (%): compared to the initial value
Method: Example No. 2. Follow-up observation of pH of washes of a laboratory model of S. mutans biofilms.
Inoculum of S.mutans control strain was prepared from an ampoule. The ampoule with the dried strain was opened sterilely over a drier or a tray. The upper end of the ampoule was heated on a burner flame, and paraffin was removed; then a piece of sterile absorbent cotton moistened in sterile water was carefully touched to the pulled end of the ampoule so that a small crack appeared, and the same wet cotton was passed around the tip of the ampoule. After the crack had formed, the end of the ampoule was removed with a light blow of tweezers. After opening the ampoule, 0.3-0.5 ml of heart-brain broth was sterilely poured in. After dissolution of the dry contents, the ampoule was transferred with a Pasteur pipette into tubes with 2 ml of heart-brain broth and grown at 37°C for 2 hours in a thermostat in 5% CO2 medium. To restore full viability, 1-2 passages on nutrient media appropriate for the microbes of the species were required. 2 Petri dishes with agar containing 5% horse blood were seeded with 0.1 ml of a 2-hour culture on heart-brain broth of the strain. Petri dishes were incubated at 37°C for 18 hours in an incubator containing 5% CO2. Gram stained smears were prepared from the grown colonies to assess the tinctorial, phenotypic properties and homogeneity of bacteria. Species membership was confirmed using MALDI-TOF reference bases.
Aqueous solutions of nisin in concentrations of 0.004 and 0.008% were taken as the working solutions for testing. […] Distilled water was used as a negative control. […] Urea was chosen due to its ability to alkalinize the environment in bacterial biofilms (Jadon et al., 2018). During the assay, a 10% sucrose solution was used, which is known to be readily metabolized by cariogenic bacteria to acid, thus contributing to the overall acidification of the medium.
The contents of the wells were extracted using an aspirator. All 6 wells of the first row were filled with 1 ml of deionized water and left for 5 min. The water was extracted with an aspirator; 1 ml of the test solution was added into the wells; in 1 min the component was removed, the wells were glazed for 1 min with deionized water, then it was removed. 250 µl of 10% sucrose was added to the wells and biofilms were scraped off the well walls with a disposable plastic loop. The resulting suspension was transferred by pipette into three Eppendorf tubes: contents of wells 1 and 2 into Eppendorf tube No. 1, contents of wells 3 and 4 into Eppendorf tube No. 2, contents of wells 5 and 6 into Eppendorf tube No. 3; next, the measurement of pH started immediately. Time points of the measurement are: 0, 1, 2, 3, 4, 5, 6, 7, 8, 9, 10, 15, 20, 30 min. After the test was finished, the electrode was washed and the described procedure was repeated for the next solution under study.

[2] = test system: Streptococcus mutans No. 22081; assay: Effect of nisin concentrations on growth and biomass accumulation of S.mutans, serial two-fold dilutions micromethod, 16-hour follow-up (optical density A565 nm); format: cell-based
From the text: Example No. 1. Determination of the effect of different concentrations of nisin on growth and biomass accumulation of S.mutans No. 22081 in 16-hour follow-up.
Aqueous solution of nisin in different concentrations was used as the working solution.
To prepare the reaction mixture containing the tested component, a method of serial twofold dilutions in heart-brain broth (Series 201181, valid till 012025., CONDALAB, Spain), a micromethod (flat-bottom 96-well plate), for which serial dilutions of the investigated component were prepared in liquid nutrient medium. When setting the methods of serial dilutions, control of culture growth on medium without the active component was carried out, and the quality of medium and investigated preparations was controlled using reference strains of the species. The purity of the microorganism suspension used for inoculation was also controlled by sowing on non-selective media.
The results of the micromethod formulation to evaluate the effect of drugs on the growth and development of the culture of Streptococcus mutans No. 22081 were recorded spectrophotometrically in an automatic kinetic format (intermittent shaking, T-37°C, measurement of optical density A565 nm every hour in automatic mode).

[3] = heart-brain broth, 37°C, 16-hour follow-up

NC(N)=O [Urea, reference compound]
pH of mechanically disrupted S.mutans biofilms ([1]; Urea 0.5%, 10% sucrose, 0 min): 6.33±0.03 | pH of mechanically disrupted S.mutans biofilms ([1]; Urea 0.5%, 10% sucrose, 1 min): 6.32±0.006 | pH change (in brackets), S.mutans biofilms ([1]; Urea 0.5%, 10% sucrose, 1 min vs previous time point): -0.01 | pH of mechanically disrupted S.mutans biofilms ([1]; Urea 0.5%, 10% sucrose, 2 min): 6.22±0.01 | pH change (in brackets), S.mutans biofilms ([1]; Urea 0.5%, 10% sucrose, 2 min vs previous time point): -0.1 | pH of mechanically disrupted S.mutans biofilms ([1]; Urea 0.5%, 10% sucrose, 3 min): 6.15±0.006 | pH change (in brackets), S.mutans biofilms ([1]; Urea 0.5%, 10% sucrose, 3 min vs previous time point): -0.07 | pH of mechanically disrupted S.mutans biofilms ([1]; Urea 0.5%, 10% sucrose, 4 min): 6.09±0.006 | pH change (in brackets), S.mutans biofilms ([1]; Urea 0.5%, 10% sucrose, 4 min vs previous time point): -0.06 | pH of mechanically disrupted S.mutans biofilms ([1]; Urea 0.5%, 10% sucrose, 5 min): 6.06±0 | pH change (in brackets), S.mutans biofilms ([1]; Urea 0.5%, 10% sucrose, 5 min vs previous time point): -0.03 | pH of mechanically disrupted S.mutans biofilms ([1]; Urea 0.5%, 10% sucrose, 6 min): 6.04±0 | pH change (in brackets), S.mutans biofilms ([1]; Urea 0.5%, 10% sucrose, 6 min vs previous time point): -0.02 | pH of mechanically disrupted S.mutans biofilms ([1]; Urea 0.5%, 10% sucrose, 7 min): 6.02±0.006 | pH change (in brackets), S.mutans biofilms ([1]; Urea 0.5%, 10% sucrose, 7 min vs previous time point): -0.02 | pH of mechanically disrupted S.mutans biofilms ([1]; Urea 0.5%, 10% sucrose, 8 min): 6.0±0.01 | pH change (in brackets), S.mutans biofilms ([1]; Urea 0.5%, 10% sucrose, 8 min vs previous time point): -0.02 | pH of mechanically disrupted S.mutans biofilms ([1]; Urea 0.5%, 10% sucrose, 9 min): 5.93±0.02 | pH change (in brackets), S.mutans biofilms ([1]; Urea 0.5%, 10% sucrose, 9 min vs previous time point): -0.07 | pH of mechanically disrupted S.mutans biofilms ([1]; Urea 0.5%, 10% sucrose, 10 min): 5.83±0.02 | pH change (in brackets), S.mutans biofilms ([1]; Urea 0.5%, 10% sucrose, 10 min vs previous time point): -0.1 | pH of mechanically disrupted S.mutans biofilms ([1]; Urea 0.5%, 10% sucrose, 15 min): 5.74±0.02 | pH change (in brackets), S.mutans biofilms ([1]; Urea 0.5%, 10% sucrose, 15 min vs previous time point): -0.09 | pH of mechanically disrupted S.mutans biofilms ([1]; Urea 0.5%, 10% sucrose, 20 min): 5.46±0.02 | pH change (in brackets), S.mutans biofilms ([1]; Urea 0.5%, 10% sucrose, 20 min vs previous time point): -0.28 | pH of mechanically disrupted S.mutans biofilms ([1]; Urea 0.5%, 10% sucrose, 30 min): 5.24±0.006 | pH change (in brackets), S.mutans biofilms ([1]; Urea 0.5%, 10% sucrose, 30 min vs previous time point): -0.22 | Value of pH decrease within 30 min. of measurement (%) ([1]; Urea 0.5%, 10% sucrose): -17.22% | ability to stabilize pH in monospecies cariogenic biofilms ([1]; Urea in concentration of 0.5%, compared to the negative control): no ability to stabilize pH

Nisin
effect on growth and biomass accumulation ([2]; concentrations lower than 0.0039%): no significant effect | concentrations that significantly inhibited growth and biomass accumulation, but had no bactericidal effect [2, 3]: 0.0039-0.0078% | final concentration with pronounced antibacterial effect [2, 3]: 0.0078-0.125% | minimum-suppressive concentration [2, 3]: 0.0039% | antibacterial and inhibitory activity against S.mutans ([2]; nisin solution in concentration of 0.008% and below): not able to have antibacterial and inhibitory activity | pH of mechanically disrupted S.mutans biofilms ([1]; Nisin 0.004%, 10% sucrose, 0 min): 6.09±0.006 | pH of mechanically disrupted S.mutans biofilms ([1]; Nisin 0.004%, 10% sucrose, 1 min): 6.08±0.006 | pH change (in brackets), S.mutans biofilms ([1]; Nisin 0.004%, 10% sucrose, 1 min vs previous time point): -0.01 | pH of mechanically disrupted S.mutans biofilms ([1]; Nisin 0.004%, 10% sucrose, 2 min): 6.07±0.006 | pH change (in brackets), S.mutans biofilms ([1]; Nisin 0.004%, 10% sucrose, 2 min vs previous time point): -0.01 | pH of mechanically disrupted S.mutans biofilms ([1]; Nisin 0.004%, 10% sucrose, 3 min): 6.05±0.006 | pH change (in brackets), S.mutans biofilms ([1]; Nisin 0.004%, 10% sucrose, 3 min vs previous time point): -0.02 | pH of mechanically disrupted S.mutans biofilms ([1]; Nisin 0.004%, 10% sucrose, 4 min): 6.05±0 | pH change (in brackets), S.mutans biofilms ([1]; Nisin 0.004%, 10% sucrose, 4 min vs previous time point): 0 | pH of mechanically disrupted S.mutans biofilms ([1]; Nisin 0.004%, 10% sucrose, 5 min): 6.04±0.006 | pH change (in brackets), S.mutans biofilms ([1]; Nisin 0.004%, 10% sucrose, 5 min vs previous time point): -0.01 | pH of mechanically disrupted S.mutans biofilms ([1]; Nisin 0.004%, 10% sucrose, 6 min): 6.05±0.006 | pH change (in brackets), S.mutans biofilms ([1]; Nisin 0.004%, 10% sucrose, 6 min vs previous time point): +0.01 | pH of mechanically disrupted S.mutans biofilms ([1]; Nisin 0.004%, 10% sucrose, 7 min): 6.05±0.006 | pH change (in brackets), S.mutans biofilms ([1]; Nisin 0.004%, 10% sucrose, 7 min vs previous time point): 0 | pH of mechanically disrupted S.mutans biofilms ([1]; Nisin 0.004%, 10% sucrose, 8 min): 6.05±0 | pH change (in brackets), S.mutans biofilms ([1]; Nisin 0.004%, 10% sucrose, 8 min vs previous time point): 0 | pH of mechanically disrupted S.mutans biofilms ([1]; Nisin 0.004%, 10% sucrose, 9 min): 6.05±0 | pH change (in brackets), S.mutans biofilms ([1]; Nisin 0.004%, 10% sucrose, 9 min vs previous time point): 0 | pH of mechanically disrupted S.mutans biofilms ([1]; Nisin 0.004%, 10% sucrose, 10 min): 6.06±0.006 | pH change (in brackets), S.mutans biofilms ([1]; Nisin 0.004%, 10% sucrose, 10 min vs previous time point): +0.01 | pH of mechanically disrupted S.mutans biofilms ([1]; Nisin 0.004%, 10% sucrose, 15 min): 6.05±0.006 | pH change (in brackets), S.mutans biofilms ([1]; Nisin 0.004%, 10% sucrose, 15 min vs previous time point): -0.01 | pH of mechanically disrupted S.mutans biofilms ([1]; Nisin 0.004%, 10% sucrose, 20 min): 6.04±0.006 | pH change (in brackets), S.mutans biofilms ([1]; Nisin 0.004%, 10% sucrose, 20 min vs previous time point): -0.01 | pH of mechanically disrupted S.mutans biofilms ([1]; Nisin 0.004%, 10% sucrose, 30 min): 6.0±0 | pH change (in brackets), S.mutans biofilms ([1]; Nisin 0.004%, 10% sucrose, 30 min vs previous time point): -0.04 | Value of pH decrease within 30 min. of measurement (%) ([1]; Nisin 0.004%, 10% sucrose): -1.47% | Value of pH decrease within 30 min. of measurement (%) ([1]; Nisin 0.008%, 10% sucrose): -3.15% | pH of mechanically disrupted S.mutans biofilms ([1]; Nisin 0,008%, 10% sucrose, 0 min): 6.33±0 | pH of mechanically disrupted S.mutans biofilms ([1]; Nisin 0,008%, 10% sucrose, 1 min): 6.32±0.006 | pH change (in brackets), S.mutans biofilms ([1]; Nisin 0,008%, 10% sucrose, 1 min vs previous time point): -0.01 | pH of mechanically disrupted S.mutans biofilms ([1]; Nisin 0,008%, 10% sucrose, 2 min): 6.31±0.006 | pH change (in brackets), S.mutans biofilms ([1]; Nisin 0,008%, 10% sucrose, 2 min vs previous time point): -0.01 | pH of mechanically disrupted S.mutans biofilms ([1]; Nisin 0,008%, 10% sucrose, 3 min): 6.28±0.01 | pH change (in brackets), S.mutans biofilms ([1]; Nisin 0,008%, 10% sucrose, 3 min vs previous time point): -0.03 | pH of mechanically disrupted S.mutans biofilms ([1]; Nisin 0,008%, 10% sucrose, 4 min): 6.24±0.006 | pH change (in brackets), S.mutans biofilms ([1]; Nisin 0,008%, 10% sucrose, 4 min vs previous time point): -0.04 | pH of mechanically disrupted S.mutans biofilms ([1]; Nisin 0,008%, 10% sucrose, 5 min): 6.21±0.006 | pH change (in brackets), S.mutans biofilms ([1]; Nisin 0,008%, 10% sucrose, 5 min vs previous time point): -0.03 | pH of mechanically disrupted S.mutans biofilms ([1]; Nisin 0,008%, 10% sucrose, 6 min): 6.21±0 | pH change (in brackets), S.mutans biofilms ([1]; Nisin 0,008%, 10% sucrose, 6 min vs previous time point): -0.03 | pH of mechanically disrupted S.mutans biofilms ([1]; Nisin 0,008%, 10% sucrose, 7 min): 6.23±0 | pH change (in brackets), S.mutans biofilms ([1]; Nisin 0,008%, 10% sucrose, 7 min vs previous time point): +0.02 | pH of mechanically disrupted S.mutans biofilms ([1]; Nisin 0,008%, 10% sucrose, 8 min): 6.23±0 | pH change (in brackets), S.mutans biofilms ([1]; Nisin 0,008%, 10% sucrose, 8 min vs previous time point): 0 | pH of mechanically disrupted S.mutans biofilms ([1]; Nisin 0,008%, 10% sucrose, 9 min): 6.21±0 | pH change (in brackets), S.mutans biofilms ([1]; Nisin 0,008%, 10% sucrose, 9 min vs previous time point): -0.02 | pH of mechanically disrupted S.mutans biofilms ([1]; Nisin 0,008%, 10% sucrose, 10 min): 6.2±0.006 | pH change (in brackets), S.mutans biofilms ([1]; Nisin 0,008%, 10% sucrose, 10 min vs previous time point): -0.01 | pH of mechanically disrupted S.mutans biofilms ([1]; Nisin 0,008%, 10% sucrose, 15 min): 6.18±0 | pH change (in brackets), S.mutans biofilms ([1]; Nisin 0,008%, 10% sucrose, 15 min vs previous time point): -0.02 | pH of mechanically disrupted S.mutans biofilms ([1]; Nisin 0,008%, 10% sucrose, 20 min): 6.17±0.006 | pH change (in brackets), S.mutans biofilms ([1]; Nisin 0,008%, 10% sucrose, 20 min vs previous time point): -0.01 | pH of mechanically disrupted S.mutans biofilms ([1]; Nisin 0,008%, 10% sucrose, 30 min): 6.13±0.006 | pH change (in brackets), S.mutans biofilms ([1]; Nisin 0,008%, 10% sucrose, 30 min vs previous time point): -0.04 | effect on the pH of cariogenic biofilm affected by sucrose ([1]; nisin 0.004-0.008%, 10% sucrose): stabilizing effect

Source: patent publication EP4640206A1, “NISIN FOR INHIBITING BIOFILMS” (SkyLab AG, priority 2024, dated 2025)
